What was measured:
Mus musculus [1] = species: Mus musculus; test: Cytotoxicity against Balb/c mouse B cells assessed as decrease in cell viability at 100 uM after 48 hrs by MTT assay; assay type: toxicity, cell-based
Mus musculus [2] = species: Mus musculus; test: Cytotoxicity against Balb/c mouse B cells assessed as decrease in cell viability at 10 uM after 48 hrs by MTT assay; assay type: toxicity, cell-based
Mus musculus [3] = species: Mus musculus; test: Cytotoxicity against Balb/c mouse B cells assessed as decrease in cell viability at 1 uM after 48 hrs by MTT assay; assay type: toxicity, cell-based
Mus musculus [4] = species: Mus musculus; test: Cytotoxicity against Balb/c mouse T cells assessed as decrease in cell viability at 100 uM after 48 hrs by MTT assay; assay type: toxicity, cell-based
Mus musculus [5] = species: Mus musculus; test: Cytotoxicity against Balb/c mouse T cells assessed as decrease in cell viability at 10 uM after 48 hrs by MTT assay; assay type: toxicity, cell-based
Mus musculus [6] = species: Mus musculus; test: Cytotoxicity against Balb/c mouse T cells assessed as decrease in cell viability at 1 uM after 48 hrs by MTT assay; assay type: toxicity, cell-based
[7] = Immunosuppressive activity in Balb/c mouse T cells assessed as inhibition of ConA-induced cell proliferation at 100 uM after 48 hrs by MTT assay relative to control; assay type: functional
[8] = Immunosuppressive activity in Balb/c mouse B cells assessed as inhibition of LPS-induced cell proliferation at 100 uM after 48 hrs by MTT assay relative to control; assay type: functional
[9] = Immunosuppressive activity in Balb/c mouse B cells assessed as inhibition of LPS-induced cell proliferation at 10 uM after 48 hrs by MTT assay relative to control; assay type: functional
[10] = Immunosuppressive activity in Balb/c mouse B cells assessed as inhibition of LPS-induced cell proliferation at 1 uM after 48 hrs by MTT assay relative to control; assay type: functional
T-cell = test: Immunosuppressive activity in Balb/c mouse T cells assessed as inhibition of ConA-induced cell proliferation after 48 hrs by MTT assay relative to control; assay type: functional, cell-based
[11] = Immunosuppressive activity in Balb/c mouse T cells assessed as inhibition of ConA-induced cell proliferation at 10 uM after 48 hrs by MTT assay relative to control; assay type: functional
[12] = Immunostimulatory activity in Balb/c mouse T cells assessed as induction of ConA-induced cell proliferation at 1 uM after 48 hrs by MTT assay relative to control; assay type: cell-based
B = test: Immunosuppressive activity in Balb/c mouse B cells assessed as inhibition of LPS-induced cell proliferation after 48 hrs by MTT assay relative to control; assay type: functional, cell-based
[13] = Immunostimulatory activity in Balb/c mouse B cells assessed as induction of LPS-induced cell proliferation at 1 uM after 48 hrs by MTT assay relative to control; assay type: cell-based
[14] = Immunosuppressive activity in Balb/c mouse T cells assessed as inhibition of ConA-induced cell proliferation at 1 uM after 48 hrs by MTT assay relative to control; assay type: functional
[15] = Immunostimulatory activity in Balb/c mouse T cells assessed as induction of ConA-induced cell proliferation at 10 uM after 48 hrs by MTT assay relative to control; assay type: cell-based

| SMILES | Activity (Mus musculus [1]) | Activity (Mus musculus [2]) | Activity (Mus musculus [3]) | Activity (Mus musculus [4]) | Activity (Mus musculus [5]) | Activity (Mus musculus [6]) | inhibition at 100 µM [7] [%] | inhibition at 100 µM [8] [%] | inhibition at 10 µM [9] [%] | inhibition at 1 µM [10] [%] | inhibition (T-cell) | inhibition at 10 µM [11] [%] | Activity [12] [%] | inhibition (B) | Activity [13] [%] | inhibition at 1 µM [14] [%] | Activity [15] [%] |
| --- | --- | --- | --- | --- | --- | --- | --- | --- | --- | --- | --- | --- | --- | --- | --- | --- | --- |
| CC(=O)Oc1cc(C)c2c(c1C)C[C@H]([C@@H](C)C(=O)OCc1cn(-c3ccccc3C#N)nn1)CC2 | Toxic | Toxic | Toxic | Toxic | Toxic | Toxic | 6.48 | 25.1 | 26.3 | 40 | Dose-dependent effect | 4.62 | 12.96 | Dose-dependent effect | – | – | – |
| CC(=O)Oc1cc(C)c2c(c1C)C[C@H]([C@@H](C)C(=O)OCc1cn(Cc3ccc(Br)cc3)nn1)CC2 | Toxic | Toxic | Non-Toxic | Toxic | Toxic | Non-Toxic | 37.4 | 38.7 | 34.1 | – | Dose-dependent effect | 33.9 | 14.15 | Dose-dependent effect | 19.71 | – | – |
| CC(=O)Oc1cc(C)c2c(c1C)C[C@H]([C@@H](C)C(=O)OCc1cn(-c3ccc(CO)cc3)nn1)CC2 | Toxic | Toxic | Toxic | Toxic | Toxic | Toxic | 5.88 | 11.5 | 35.7 | 40 | Dose-dependent effect | 37.5 | – | Dose-dependent effect | – | 40 | – |
| CC(=O)Oc1cc(C)c2c(c1C)C[C@H]([C@@H](C)C(=O)OCc1cn(-c3ccc(Cl)nc3)nn1)CC2 | Non-Toxic | Toxic | Non-Toxic | Non-Toxic | Toxic | Non-Toxic | 1.85 | 33.7 | 24 | – | Dose-dependent effect | 17.6 | – | Dose-dependent effect | 9.71 | 17.6 | – |
| CC(=O)Oc1cc(C)c2c(c1C)C[C@H]([C@@H](C)C(=O)OCc1cn(-c3ccccc3Cl)nn1)CC2 | Toxic | Toxic | Toxic | Toxic | Toxic | Toxic | 30.6 | 37.7 | 30.3 | 33.7 | Dose-dependent effect | 17.6 | – | Dose-dependent effect | – | 5.55 | – |
| CC(=O)Oc1cc(C)c2c(c1C)C[C@H]([C@@H](C)C(=O)OCc1cn(-c3ccc(Cl)c(Cl)c3)nn1)CC2 | Toxic | Toxic | Non-Toxic | Toxic | Toxic | Non-Toxic | 11.8 | 49.5 | 50.5 | 39 | Dose-dependent effect | 18.4 | – | Dose-dependent effect | – | 31.6 | – |
| CC1=C2[C@H]3OC(=O)[C@@H](C)[C@@H]3CC[C@@]2(C)C=CC1=O [SANTONIN] | Non-Toxic | Non-Toxic | Non-Toxic | Non-Toxic | Non-Toxic | Non-Toxic | 6.09 | 37.6 | 26.8 | 21.1 | Dose-dependent effect | – | – | Dose-dependent effect | – | 39.4 | 3.66 |
